# According to US20090185973A1, “METHODS, COMPOSITIONS, UNIT DOSAGE FORMS, AND KITS FOR PHARMACOLOGIC STRESS TESTING WITH REDUCED SIDE EFFECTS” (ADENOBIO N.V., priority 2008, published 2009):
# “And” between values parts separate entries of the source, which are not always exact repeats. Equal values may be shown once. Read-outs that look alike come from different tables or passages of the source.
# Assays:
# guinea-pig = details: pretreatment dipyridamole 0.025 mg (n = 5); after 14C-adenosine IV injection; mean; cited from earlier work
# [1] = tested on: patients with normal coronary reserve; assay: Priming dose effect: time to peak and return to baseline, concurrent administration (Example 4); assay type: in vivo, human
# From the text: As a test, a low priming dose of dipyridamole was combined with the concurrent administration of the two drugs to determine whether the time to peak and the occurrence of near maximal hyperaemia could be accelerated, especially when infusion time is reduced by, for example, one minute.
# [2] = cited from earlier work
# [3] = tested on: patients suffering from ischemic heart disease; assay: Transthoracic doppler echocardiography (TTDE) blood flow velocity in LAD, sequential administration (Example 1); assay type: in vivo, human; details: lower doses of dipyridamole (10, 14 and 18 μg/kg)
# Experimental: In the combined administration, each of the two agents was administered at a dosage lower than its clinically preferred dosage when used as a single agent for myocardial perfusion imaging. Effects were measured using noninvasive transthoracic doppler echocardiography (TTDE).
# Primary efficacy end-points were peak and mean diastolic flow velocities (measured as reflecting coronary blood flow values). The secondary end-point was patient tolerance to the procedure. The protocol was designed as follows.
# Forty (40) consecutive patients suffering from ischemic heart disease were enrolled. Each patient served as their own control.
# […] Total doses are between about 4-6% of the lowest single-agent total dose of dipyridamole (i.e., 0.56 mg/kg, infused over a total of 4 minutes).
# This dose is half the standard single-agent dosage rate of 140 μg/kg/min.
# patients = assay type: in vivo, human; details: for PV Max, individual patients / MV Max, individual patients / MV Min, individual patients / PV Min, individual patients: listed as DIP
# A2a receptor = A2a receptor (Homo sapiens, UniProt P29274); details: in vivo; cited from earlier work
# [4] = DIP dose 28 μg/kg, ADE 140 μg/kg/min
# [5] = DIP dose 35 μg/kg, ADE 140 μg/kg/min
# [6] = DIP dose 40 μg/kg, ADE 140 μg/kg/min
# Chain of A2a receptor (P29274 whole entry): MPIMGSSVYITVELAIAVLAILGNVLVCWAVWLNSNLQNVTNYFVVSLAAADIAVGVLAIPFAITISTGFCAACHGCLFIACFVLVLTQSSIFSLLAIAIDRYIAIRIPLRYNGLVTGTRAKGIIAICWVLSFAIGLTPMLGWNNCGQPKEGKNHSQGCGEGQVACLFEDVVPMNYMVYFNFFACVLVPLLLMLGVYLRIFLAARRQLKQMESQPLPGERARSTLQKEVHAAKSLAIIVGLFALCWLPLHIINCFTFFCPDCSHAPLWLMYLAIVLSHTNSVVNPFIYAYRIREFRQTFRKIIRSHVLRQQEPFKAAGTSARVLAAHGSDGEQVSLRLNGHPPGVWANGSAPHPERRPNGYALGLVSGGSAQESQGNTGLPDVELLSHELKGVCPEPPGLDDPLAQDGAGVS
smiles,measurement,setting,value
OCCN(CCO)c1nc(N2CCCCC2)c2nc(N(CCO)CCO)nc(N3CCCCC3)c2n1 [dipyridamole],"14C distribution, Heart",guinea-pig,2.1 ± 1.01 percentage of ^14C administered
same,"14C distribution, Lungs",guinea-pig,71.4 ± 4.9 (p < 0.05) percentage of ^14C administered
same,Effect of priming dose on time to peak,"[1]; dipyridamole priming dose 0.05 mg, 3 patients",did not modify
same,Effect of priming dose on time to peak,[1]; dipyridamole priming dose 0.1 mg,did modify
same,Effect of priming dose on time to peak,"[1]; dipyridamole priming dose 0.3 mg, 3 patients",did not perform better than 0.1 mg
same,Solubility in saline,[2]; saline,poorly soluble
same,Stability in the long term,[2]; solvents at pH>4,unstable
same,Effect in preliminary dose ranging studies,[3],no effect
same,"PV Max, individual patient","patients; DIP dose 28 μg/kg bolus alone, ADE 140 μg/kg/min 3 min",26 cm/sec
same,"MV Max, individual patient",patients; [4],21 cm/s
same,"MV Min, individual patient",patients; [4],19 cm/s
same,"PV Min, individual patient",patients; [4],23 cm/sec
same,"PV Max, individual patients","patients; DIP dose 35 μg/kg bolus alone, ADE 140 μg/kg/min 3 min",23 cm/sec and 40 cm/sec
same,"MV Max, individual patients",patients; [5],20 cm/s and 28 cm/s
same,"MV Min, individual patients",patients; [5],18 cm/s and 22 cm/s
same,"PV Min, individual patients",patients; [5],21 cm/sec and 30 cm/sec
same,"PV Max, individual patients","patients; DIP dose 40 μg/kg bolus alone, ADE 140 μg/kg/min 3 min",35 cm/sec and 40 cm/sec
same,"MV Max, individual patients",patients; [6],25 cm/s and 29 cm/s
same,"MV Min, individual patients",patients; [6],23 cm/s and 24 cm/s
same,"PV Min, individual patients",patients; [6],33 cm/sec and 34 cm/sec
same,Effect on peak and mean diastolic velocities,"patients; dipyridamole alone, bolus 28, 35 or 40 μg/kg",did not modify
same,Symptoms recorded during a follow-up of 10 minutes,patients; in vivo,No symptoms
Nc1nc(N/N=C/C2CCCCC2)nc2c1ncn2[C@@H]1O[C@H](CO)[C@@H](O)[C@H]1O [binodenoson],Duration of action,A2a receptor,10 ± 6 min
